The record followed here is US10921325B2, “Composition for anticancer adjuvant comprising RIP3 expression promoter as active ingredient, method for screening anticancer adjuvant which promotes RIP3 expression and enhances sensitivity of anticancer agent, and method for monitoring sensitivity of anticancer agent” (AJOU UNIVERSITY INDUSTRY-ACADEMIC COOPERATION FOUNDATION, priority 2015, dated 2021).

The subject of assay [1] is HeLa, MDA-MB231 and DLD-1 cancer cell lines. Nature of the assay: Sensitization to cancer cell death by combined treatment with demethylating agent and anticancer drug. Format: cell-based. How it is done: (§1) Cell viability was determined using tetrazolium dye colorimetric test (MTT assay) at 570 nm.
The same number of HeLa, MDA-MB231 and DLD-1 cancer cell lines not treated with a drug were also grown, and then treated with the same concentration of an anticancer drug. The effect of the demethylating agent on sensitization to cell death was analyzed.

The next assay has as its system T47D cells. Nature of the assay: Viability (MTT) of RIP3-silenced T47D cells treated with anticancer drug. The following applies: 48 hours; for anticancer drug resistance (MTT assay): T47D RIP3-knocked down test group, versus control group; for cell death (MTT assay): T47D control group. Format: cell-based, human. Here is the method: The T47D cell line which is a breast cancer cell line expressing RIP3 was used to identify the role of RIP3 in various kinds of cancel. First, the shRIP3 T47D cell line was prepared in the same manner as described in Example 7.
In order to examine whether RIP3 increases anticancer drug sensitivity in T47D breast cancer cells, an MTT assay was performed. A control group and a RIP3-knocked down test group were incubated with doxorubicin, etoposide and taxol at the concentrations shown in FIG. 15 (right) for 48 hours.

Assay [2] relates to RIP3 expression in HeLa cervical cell line and DLD-1 colorectal cancer cell line. Nature of the assay: RIP3 expression at mRNA or protein level in HeLa and DLD-1 cells treated with demethylating agent. Format: cell-based. As to conditions: HeLa and DLD-1 cell lines which expressed no RIP3.
Assay [3] relates to RIP3 expression in RIP3-silenced cancer cell lines. Nature of the assay: RIP3 expression in RIP3-silenced cancer cell lines treated with demethylating agent (Western blotting). For orientation: In western blotting, separated proteins are transferred to a membrane and probed.
Method: Cells were lysed in M2 buffer. Equal amounts of cell extracts were analyzed by SDS-PAGE and immunoblotting, and visualized by enhanced chemiluminescence (ECL, Amersham). A variety of RIP3-silenced cancer cell lines (including liver cancer, cervical cancer, prostate cancer, brain cancer, ovarian cancer, skin cancer, lung cancer, breast cancer, blood cancer, colorectal cancer, and bladder cancer) were grown to a confluence of 10-20%, and then treated twice with 5-AD for 4 days, after which RIP3 expression patterns in the cell lines were analyzed by a Western blotting technique.
Assay [4] deals with RIP3 expression in non-target and shRIP3 cancer cell lines. As to the kind of experiment: RIP3 expression in non-target and shRIP3 cell lines treated with 5-AD (Western blotting). Format: cell-based, human. The following applies: treated twice with 5-AD for 4 days. Here is the method:
A MISSION short-hairpin RNA (shRNA) plasmid that targets the coding region or 3′ UTR of hRIP3 mRNA (NM_006871) or a non-target control sequence (NM-027088) were obtained from Sigma-Aldrich. A Lentivirus plasmid was transfected into 293T cells (System Biosciences, LV900A-1) using Lipofectamine 2000 (Invitrogen, 11668019). Pseudoviral particles were collected at 2 days after transfection of the Lentivirus plasmid and infected into various cancer cells in the presence of polybrene (10 μg/mL). At 2 days after infection, infected cells were selected with puromycin, and RIP3 knockdown was confirmed by immunoblotting. Cells without expression endogenous RIP3 were afterwards treated with 5-AD for 4 days and analyzed by immunoblotting.
Cells were lysed in M2 buffer.
(§2) Since a demethylating agent (5-AD or 5-AZA) is not a drug specific for a particular protein, it may cause expression of various proteins in addition to RIP3. […] After whether RIP3 was expressed was determined, a cell viability assay was performed.

For assay [5], the system named is non-target cell line and shRIP3 cell line. As to the kind of experiment: Cell viability (MTT) of non-target and shRIP3 cell lines after combined treatment with demethylating agent and anticancer drug. Format: cell-based, human. How it is done:
A MISSION short-hairpin RNA (shRNA) plasmid that targets the coding region or 3′ UTR of hRIP3 mRNA (NM_006871) or a non-target control sequence (NM-027088) were obtained from Sigma-Aldrich. A Lentivirus plasmid was transfected into 293T cells (System Biosciences, LV900A-1) using Lipofectamine 2000 (Invitrogen, 11668019). Pseudoviral particles were collected at 2 days after transfection of the Lentivirus plasmid and infected into various cancer cells in the presence of polybrene (10 μg/mL).
as §1, §2

The test system of assay [6] is MDA-MB231 breast cancer cell line tumors. Nature of the assay: MDA-MB231 mouse xenograft model, combined treatment with 5-AD and Doxorubicin. Format: in vivo, BALB/c nude mice. How it is done: In order to verify the sensitization effect induced by RIP3 expression in experimental animal models, the MDA-MB231 breast cancer cell line that expresses no RIP3 was injected into BALB/c nude mice to form tumors. Next, the mice were injected with 5-AD for 1 week, and then injected with Doxorubicin for 33 days, and a change in the volume of the tumor tissue was measured. […] In addition, the tumor tissue was isolated after the last drug treatment, and the mass thereof was measured. […] The tumor tissue subjected to combined treatment with 5-AD and Doxorubicin was prepared into a paraffin block which was then visualized by H&E staining, p-H2AX antibody staining, and TUNEL staining.

Assay [7] concerns RIP3 expression in MDA-MB231 tumor tissue. As to the kind of experiment: RIP3 expression in isolated xenograft tumor tissue (RT-PCR, IHC). Format: in vivo, BALB/c nude mice. As to conditions: group treated with 5-AD. How it is done: Immunohistochemistry was performed using the UltraVision LP Detection System TL-060-HD (Thermo Scientific, Bioanalytica) according to the manufactures instructions. Thin paraffin sections (4.5 μm) were deparaffinized in xylene and rehydrated in a graded series of ethanol-aqueous solutions. Antigen retrieval was done by heating the slides for 15 min in a microwave oven in 10 mM citrate buffer (pH 6.0). Endogenous peroxidase activity was blocked by incubation in 3% hydrogen peroxide in TBS for 10 min, and then the sections were incubated overnight at 4° C. in 1:300 dilutions of anti-RIP3 antibody. Chromogen was developed for 5 min with 3,3′-diaminobenzidine (TL-015-HD, Them© Scientific, Bioanalytica, Greece) solution and counterstained with Meyer's hematoxylin. Immunohistochemical staining was evaluated based on the proportion of stained cells and immunostaining intensity. H-score used in the present invention was obtained by multiplying the proportion of stained cells (i) and staining intensity graded 0 (negative), 1 (weak), 2 (moderate), or 3 (strong). H-score ranged from 0 to 300. Staining was carried out for tumor and normal tissues for each sample for the same time. Staining was interpreted by an experienced pathologist blinded to the clinical data.
In addition, RNA was extracted from the isolated tumor tissue and subjected to RT-PCR. […]

Another assay concerns HT-29 cells. Nature of the assay: Viability (MTT) of RIP3-silenced HT-29 cells treated with anticancer drug. The format is cell-based, human. The following applies: 48 hours. Here is the method:
In order to identify the role of RIP3 in anticancer drug sensitivity, the HT-29 cell line which is a representative cancer cell line expressing RIP3 was used. To identity the function of RIP3, RIP3 expression was inhibited using the shRNA system and analyzed by a Western blotting technique.
In the present invention, in order to examine whether the RIP3 gene is associated with anticancer drug sensitivity, HT-29 cells transfected with RIP3 shRNA were treated with varying concentrations of doxorubicin and etoposide, and then the cell viability of the cancer cells was measured. Particularly, HT-29 cells transfected with RIP3 shRNA were treated with 2.5 μM and 5 μM of doxorubicin and 50 μM and 100 μM of etoposide, and then incubated for 48 hours. After the medium was replaced with a fresh medium containing 0.1 mg of MTT (3-([4,5-dimethylthiazol-2-yl]-2,5-diphenyltetrazolium bromide), the cells were further incubated for 2 hours. Colorimetric analysis was performed on a precipitate obtained by reducing a tetrazolium salt, in which viable cells is dissolved, into a purple formazan crystal. Next, the medium was removed, and the produced formazan crystal was dissolved in 500 μl of DMSO, and the absorbance was measured using an ELISA reader at 570 nm. Cell viability was expressed as a percentage relative to the control taken as 100% viability.

Setting [8] is: anticancer drug in combined treatment with the demethylating agent (5-AD or 5-AZA).
Where [9] appears, read: non-target cell line, anticancer drug combined with demethylating agent (5-AD).
Setting [10] is: HT-29 control group, doxorubicin 2.5 and 5 μM, etoposide 50 and 100 μM.
Where [11] appears, read: HT-29 with RIP3 knocked down with shRNA, versus control group.

Each structure is given as a SMILES string.

Regarding `CC(=O)O[C@H]1C(=O)[C@@]2(C)[C@H]([C@H](OC(=O)c3ccccc3)[C@]3(O)C[C@H](OC(=O)[C@H](O)[C@@H](NC(=O)c4ccccc4)c4ccccc4)C(C)=C1C3(C)C)[C@]1(OC(C)=O)CO[C@@H]1C[C@@H]2O` [Paclitaxel, paclitaxel], the “sensitization to cell death” value in assay [1] (setting [8]) is on record as “showed the effect of sensitizing the cancer cell lines to cell death”. In the assay with T47D cells, the “anticancer drug resistance (MTT assay)” value is “significantly increased compared to that of the control group” and the “cell death (MTT assay)” value is on record as “killed depending on the concentration”.

For the compound `Nc1ncn([C@@H]2O[C@H](CO)[C@@H](O)[C@H]2O)c(=O)n1` [5-AZA, 5-azacytidine], the RIP3 expression result is on record as “RIP3 expression was induced” in [2] and “induced RIP3 expression” in assay [3] (cancer cell lines of Example 3, treated twice for 4 days).

As to `Nc1ncn([C@H]2C[C@H](O)[C@@H](CO)O2)c(=O)n1` [5-AD, 5-aza-2′-deoxycytidine], the “sensitization to cell death” value in [1] (cervical, breast, colorectal and bladder cancer cell lines treated with the anticancer drug after RIP3 induction by 5-AD) is “sensitized to cell death”; in assay [5] (shRIP3 cell line that expresses no RIP3, 5-AD combined with anticancer drug), “the sensitization effect was inhibited”. In addition, the RIP3 expression result in [4] (non-target cell line) is “RIP3 expression was induced”; in assay [4] (shRIP3 cell line, Western blotting) it was “RIP3 was not expressed”; in assay [3] (cancer cell lines that expressed no RIP3, 5-AD 2 uM, treated twice for 4 days, Western blotting), “RIP3 expression was induced”. In [6] (5-AD for 1 week then Doxorubicin for 33 days, combined treatment compared to Doxorubicin alone), the “volume of the tumor tissue” value is given as “significantly reduced”. Further, in [6] (combined treatment with 5-AD and Doxorubicin), the “H&E staining, p-H2AX antibody staining and TUNEL staining of tumor tissue” value is recorded as “the death of the cancer cells occurred by the combined treatment”. Besides, the “mass of tumor tissue” value in [6] (tumor isolated after the last drug treatment, combined treatment with Doxorubicin and 5-AD) was “significantly reduced”. Further, the “RIP3 expression (RT-PCR)” value in assay [7] (RNA from isolated tumor tissue) is given as “increased”. Also, in [7] (paraffin block of isolated tumor tissue), the “RIP3 expression (immunohistochemistry)” value was “RIP3 expression was increased”.

As for `COc1cc([C@@H]2c3cc4c(cc3[C@@H](O[C@@H]3O[C@@H]5CO[C@@H](C)O[C@H]5[C@H](O)[C@H]3O)[C@H]3COC(=O)[C@H]23)OCO4)cc(OC)c1O` [Etoposide, etoposide], the “sensitization to cell death” value is “showed the effect of sensitizing the cancer cell lines to cell death” in assay [1] (setting [8]) and “showed the effect of sensitizing the cancer cell line to cell line” in assay [5] (setting [9]). In addition, the cell viability entry in the assay with HT-29 cells (setting [10]) was “the cell viability decreased depending on the concentration”; in the assay on HT-29 cells (setting [11]) it was “the cell viability significantly increased compared to that of the control group”. Also, the “anticancer drug resistance (MTT assay)” value in the assay on T47D cells is recorded as “significantly increased compared to that of the control group”. Besides, the “cell death (MTT assay)” value with T47D cells was “killed depending on the concentration”.

`COc1cccc2c1C(=O)c1c(O)c3c(c(O)c1C2=O)C[C@@](O)(C(=O)CO)C[C@@H]3O[C@H]1C[C@H](N)[C@H](O)[C@H](C)O1` [Doxorubicin, doxorubicin]: the “sensitization to cell death” value is “showed the effect of sensitizing the cancer cell lines to cell death” in assay [1] (setting [8]) and “showed the effect of sensitizing the cancer cell line to cell line” in assay [5] (setting [9]). The values for the cell viability entry in the assay with HT-29 cells (setting [10]) and in the assay with HT-29 cells (setting [11]) were “the cell viability decreased depending on the concentration” and “the cell viability significantly increased compared to that of the control group”, respectively. Moreover, the “anticancer drug resistance (MTT assay)” value in the assay with T47D cells is on record as “significantly increased compared to that of the control group”. For the same compound, the “cell death (MTT assay)” value with T47D cells is recorded as “killed depending on the concentration”.

On to `N.N.[Cl][Pt][Cl]` [Cisplatin, cisplatin], for which the “sensitization to cell death” value is listed as “showed the effect of sensitizing the cancer cell lines to cell death” in assay [1] (setting [8]) and “showed the effect of sensitizing the cancer cell line to cell line” in assay [5] (setting [9]).

Consider `CC[C@@]1(O)C(=O)OCc2c1cc1n(c2=O)Cc2cc3ccccc3nc2-1` [CPT], for which the results for the “sensitization to cell death” value in [1] (setting [8]) and in [5] (setting [9]) were “showed the effect of sensitizing the cancer cell lines to cell death” and “showed the effect of sensitizing the cancer cell line to cell line”, respectively.

Turning to `O=c1[nH]cc(F)c(=O)[nH]1` [5-FU], the “sensitization to cell death” value in [1] (setting [8]) is reported as “showed the effect of sensitizing the cancer cell lines to cell death”; in assay [5] (setting [9]) it was “showed the effect of sensitizing the cancer cell line to cell line”.

Turning to `O=C(O)C(Cc1c[nH]c2ccccc12)N1C(=O)c2ccccc2C1=O` (stereo not shown) [RG108], the RIP3 expression entry in assay [2] is recorded as “RIP3 expression was induced”.
